According to US20230285402A1, “Compositions and Methods of Modulating Short-Chain Dehydrogenase Activity” (BOARD OF REGENTS OF THE UNIVERSITY OF TEXAS SYSTEM, priority 2013, published 2023):

Tests used:
15-PGDH mRNA = 15-PGDH mRNA by real-time PCR in colon cancer cell lines; type: cell-based
Text: In these studies parental cell lines (not containing the 15-PGDH-luciferase reporter) are employed.

A549 cells [1] = assay: PGE2 in medium of IL1-beta stimulated A549 cells; type: cell-based
bone marrow = assay: Hematopoietic colonies from wild-type mouse bone marrow treated ex vivo; type: cell-based; details: 0.5 μM, ex vivo on ice 2 hours
Text: Treated marrow is again then plated into methylcellulose for counting of hematopoietic colonies.

CXCL12 = assay: Gene expression in bone marrow cells of treated mice: CXCL12; type: in vivo, mouse; details: 10 mg/kg IP twice daily, 5 doses
Protocol: (§1) 2 hours following the last dose bone marrow is harvested and sorted into SKL marked cells that are hematopoietic stem cell enriched and into CD45(−) cells that are bone marrow stroma cells. RNA was extracted and gene expression determined relative to levels in mice injected with vehicle control.

mice = assay: Homing of CFSE labeled donor bone marrow cells in lethally irradiated mice; type: in vivo, mouse; details: 10 mg/kg IP
Protocol: Drugs are administered following radiation, following the transplant, and again at 8 hours after the transplant.

C57BL/6J mice [2] = assay: Bone marrow of C57BL/6J mice treated IP; type: in vivo, mouse; details: 5 mg/kg or 20 mg/kg IP
Text: Experimental conditions are noted on the figure.

NSG mice = assay: Homing of CFSE labeled human umbilical cord blood buffy coat cells in NSG mice; details: in vivo
Protocol: FIG. 93 illustrates a schema of an experiment in which immune deficient NSG mice are lethally irradiated (IR) and 12 hours later receive a transplant with CFSE dye labeled buffy coat cells from human umbilical cord blood (UCB), and number of transplanted cells that home and survive in the bone marrow of the recipient mice are then determined by FACS at 16 hours post-transplant. In different arms of the experiment mice are treated with vehicle or with SW033291. Drugs are administered following radiation, following the transplant, and again at 8 hours after the transplant.

C57BL/6J mice [3] = assay: Survival of 11Gy irradiated C57BL/6J mice given marrow allograft, SW033291 5 mg/kg IP bid for 21 days, 3 mice per condition; type: in vivo, mouse
Text: The experimental design is depicted in FIG. 50.
Under the conditions of the mouse colony during this study, control mice receiving 100,000-500,000 cells are all dead between days 4-13 of study. […] Such activity would be of particular utility in settings, such as transplantation with umbilical cord stem cells, in which donor cell numbers are limited.

C57BL/6J female mice = assay: Survival of mice after whole body irradiation, SW033291 5 mg/kg IP; type: in vivo, mouse; details: for number of mice surviving: 9 Gy
A549 cells [4] = assay: Cellular toxicity by CellTiter-Glo; type: cell-based; details: concentrations of up to 10 μM; 24 hours
Protocol: FIGS. 38(A-C) show assays of cellular toxicity on A549 cells at 24 hours of 15-PGDH inhibitors as assayed by CellTiter-Glo measurement.

SCF = assay: Gene expression in bone marrow cells of treated mice: SCF; type: in vivo, mouse; details: 10 mg/kg IP twice daily, 5 doses
Protocol: as §1

FVB mice = assay: Liver regeneration after partial hepatectomy, FVB mice, SW033291 5 mg/kg IP bid; type: in vivo, mouse
[5] = tested on: cell numbers in a cell culture assay; assay: Toxicity in cell culture assay (decrease of cell numbers); type: cell-based; details: concentration needed to decrease cell numbers
Protocol: Time to inhibition refers to the time needed to inhibit the generation of NADH by 15-PGDH from the moment with drug is added into the reaction mix. Delta Tm refers to the shift in melting temperature of recombinant 15-PGDH in the presence of drug (with cofactor NADH also present). Concentration of Full Cell Line Reporter Induction refers to the concentration of drug that needs to be added to reporter cell line to achieve maximal induction of the 15-PGDH-luciferase gene fusion reporter cassette, as measured by luciferase assays. Hepatocyte stability refers to the half-life of compound in the presence of hepatocytes in culture. Toxicity refers to the concentration of compound needed to decrease cell numbers in a cell culture assay.

[6] = CD45(−) bone marrow stromal cells

CCCC[S+]([O-])c1sc2nc(-c3cccs3)cc(-c3ccccc3)c2c1N (stereo not drawn) [SW033291, 2-(butylsulfinyl)-4-phenyl-6-(thiophen-2-yl)thieno[2,3-b]pyridin-3-amine]
15-PGDH mRNA (15-PGDH mRNA; V503 cells): slight increase in 15-PGDH mRNA | 15-PGDH mRNA levels (15-PGDH mRNA; treated colon cancer cell lines): do not in general alter 15-PGDH mRNA levels | rank of PGE2 level in medium (A549 cells [1]; 100 nM drug): next highest level of PGE2 | 15-PGDH activity in cells as reflected in PGE2 levels (A549 cells [1]; IL1-beta 23 hours, compound for last 5 hours): clear inhibition of 15-PGDH activity | highest PGE2 level in medium (A549 cells [1]; IL-1β 16 h, then compound 8 h): 3000 pg/mL | increase in number of bone marrow derived colonies (bone marrow): approximately 50% | induction of CXCL12 (CXCL12; [6]): greater than 4 fold | induction in RNA expression of CXCL12 (CXCL12; bone marrow SKL cells): 3 fold | increase of homed cells in recipient bone marrow (mice; FIG. 88): 3 fold | increase of homed cells in recipient bone marrow (mice; FIG. 90): 2 fold | increase of homed donor cells in recipient bone marrow (mice; FIG. 140): approximately 2.5 fold | increase in numbers of hematopoietic colonies (C57BL/6J mice [2]): approximately 30% | percent of Sca1+/c-Kit+ cells in lineage negative (SKL) cells (C57BL/6J mice [2]): unchanged | increase of homed human cells in recipient mouse bone marrow (NSG mice): ~2 fold | Mouse survival (number surviving) (C57BL/6J mice [3]; Day 0, 1 × 10^5 cells): 3 | Mouse survival (number surviving) (C57BL/6J mice [3]; Day 0, 2 × 10^5 cells): 3 | Mouse survival (number surviving) (C57BL/6J mice [3]; Day 0, 5 × 10^5 cells): 3 | Mouse survival (number surviving) (C57BL/6J mice [3]; Day 1, 1 × 10^5 cells): 3 | Mouse survival (number surviving) (C57BL/6J mice [3]; Day 1, 2 × 10^5 cells): 3 | Mouse survival (number surviving) (C57BL/6J mice [3]; Day 1, 5 × 10^5 cells): 3 | Mouse survival (number surviving) (C57BL/6J mice [3]; Day 2, 1 × 10^5 cells): 3 | Mouse survival (number surviving) (C57BL/6J mice [3]; Day 2, 2 × 10^5 cells): 3 | Mouse survival (number surviving) (C57BL/6J mice [3]; Day 2, 5 × 10^5 cells): 3 | Mouse survival (number surviving) (C57BL/6J mice [3]; Day 3, 1 × 10^5 cells): 3 | Mouse survival (number surviving) (C57BL/6J mice [3]; Day 3, 2 × 10^5 cells): 3 | Mouse survival (number surviving) (C57BL/6J mice [3]; Day 3, 5 × 10^5 cells): 3 | Mouse survival (number surviving) (C57BL/6J mice [3]; Day 4, 1 × 10^5 cells): 2 | Mouse survival (number surviving) (C57BL/6J mice [3]; Day 4, 2 × 10^5 cells): 3 | Mouse survival (number surviving) (C57BL/6J mice [3]; Day 4, 5 × 10^5 cells): 3 | Mouse survival (number surviving) (C57BL/6J mice [3]; Day 5, 1 × 10^5 cells): 1 | Mouse survival (number surviving) (C57BL/6J mice [3]; Day 5, 2 × 10^5 cells): 3 | Mouse survival (number surviving) (C57BL/6J mice [3]; Day 5, 5 × 10^5 cells): 3 | Mouse survival (number surviving) (C57BL/6J mice [3]; Day 6, 1 × 10^5 cells): 0 | Mouse survival (number surviving) (C57BL/6J mice [3]; Day 6, 2 × 10^5 cells): 2 | Mouse survival (number surviving) (C57BL/6J mice [3]; Day 6, 5 × 10^5 cells): 3 | Mouse survival (number surviving) (C57BL/6J mice [3]; Day 7, 2 × 10^5 cells): 2 | Mouse survival (number surviving) (C57BL/6J mice [3]; Day 7, 5 × 10^5 cells): 3 | Mouse survival (number surviving) (C57BL/6J mice [3]; Day 8, 2 × 10^5 cells): 2 | Mouse survival (number surviving) (C57BL/6J mice [3]; Day 8, 5 × 10^5 cells): 2 | Mouse survival (number surviving) (C57BL/6J mice [3]; Day 9, 2 × 10^5 cells): 2 | Mouse survival (number surviving) (C57BL/6J mice [3]; Day 9, 5 × 10^5 cells): 2 | Mouse survival (number surviving) (C57BL/6J mice [3]; Day 10, 2 × 10^5 cells): 2 | Mouse survival (number surviving) (C57BL/6J mice [3]; Day 10, 5 × 10^5 cells): 2 | Mouse survival (number surviving) (C57BL/6J mice [3]; Day 11, 2 × 10^5 cells): 2 | Mouse survival (number surviving) (C57BL/6J mice [3]; Day 11, 5 × 10^5 cells): 2 | Mouse survival (number surviving) (C57BL/6J mice [3]; Day 12, 2 × 10^5 cells): 1 | Mouse survival (number surviving) (C57BL/6J mice [3]; Day 12, 5 × 10^5 cells): 2 | Mouse survival (number surviving) (C57BL/6J mice [3]; Day 13, 2 × 10^5 cells): 0 | Mouse survival (number surviving) (C57BL/6J mice [3]; Day 13, 5 × 10^5 cells): 2 | longer survival on average than vehicle control (C57BL/6J female mice; 11Gy, any of the three dosing schedules): 1 to 2 days | longer survival than vehicle control (C57BL/6J female mice; 11Gy, daily for 7 doses): 48 h | number of mice surviving (C57BL/6J female mice; Day 0, daily for 7 doses): 3 | number of mice surviving (C57BL/6J female mice; Day 5, daily for 7 doses): 3 | number of mice surviving (C57BL/6J female mice; Day 6, daily for 7 doses): 3 | number of mice surviving (C57BL/6J female mice; Day 7, daily for 7 doses): 3 | number of mice surviving (C57BL/6J female mice; Day 8, daily for 7 doses): 3 | number of mice surviving (C57BL/6J female mice; Day 9, daily for 7 doses): 3 | number of mice surviving (C57BL/6J female mice; Day 10, daily for 7 doses): 3 | number of mice surviving (C57BL/6J female mice; Day 12, daily for 7 doses): 2 | number of mice surviving (C57BL/6J female mice; Day 13, daily for 7 doses): 2 | number of mice surviving (C57BL/6J female mice; Day 14, daily for 7 doses): 1 | number of mice surviving (C57BL/6J female mice; Day 15, daily for 7 doses): 0 | appearance of mice (C57BL/6J female mice; Day 25, 7 Gy, wrapped cell reads Looks Healthy): Looks | effect on CellTitre-Glo levels (A549 cells [4]): No effect | induction of SCF (SCF; [6]): greater than 4 fold | induction in RNA expression of SCF (SCF; bone marrow SKL cells): 3 fold | increase in median S-phase (BrdU positive) cells (FVB mice; post-operative day 2): greater than 2 fold | greater liver weight than control (FVB mice; post-operative day 7, dosing from 1 hour before surgery): approximately 25% | Toxicity [5]: >10 µM
